Key:
[1] = target: T1, CSNK2A1 (Homo sapiens, UniProt P68400); test: NanoBRET in-cell target engagement, Tracer K10 displacement, HEK293; type: cell-based
T1 construct: CSNK2A-NLuc fusion

[2] = target: T2, CSNK2A2 (Homo sapiens, UniProt P19784); test: as above; type: cell-based
T2 construct: CSNK2A-NLuc fusion
T2 sequence (P19784 whole entry, the tested form may be a part): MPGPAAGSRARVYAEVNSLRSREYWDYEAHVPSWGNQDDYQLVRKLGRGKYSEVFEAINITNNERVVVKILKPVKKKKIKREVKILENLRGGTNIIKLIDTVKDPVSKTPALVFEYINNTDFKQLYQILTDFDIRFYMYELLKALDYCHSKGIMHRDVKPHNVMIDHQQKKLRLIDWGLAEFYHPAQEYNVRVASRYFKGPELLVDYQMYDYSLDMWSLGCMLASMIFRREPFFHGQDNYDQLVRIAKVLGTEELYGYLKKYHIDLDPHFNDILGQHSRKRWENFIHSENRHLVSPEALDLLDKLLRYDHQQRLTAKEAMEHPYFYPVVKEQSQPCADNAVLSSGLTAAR

T1 sequence (P68400 whole entry, the tested form may be a part): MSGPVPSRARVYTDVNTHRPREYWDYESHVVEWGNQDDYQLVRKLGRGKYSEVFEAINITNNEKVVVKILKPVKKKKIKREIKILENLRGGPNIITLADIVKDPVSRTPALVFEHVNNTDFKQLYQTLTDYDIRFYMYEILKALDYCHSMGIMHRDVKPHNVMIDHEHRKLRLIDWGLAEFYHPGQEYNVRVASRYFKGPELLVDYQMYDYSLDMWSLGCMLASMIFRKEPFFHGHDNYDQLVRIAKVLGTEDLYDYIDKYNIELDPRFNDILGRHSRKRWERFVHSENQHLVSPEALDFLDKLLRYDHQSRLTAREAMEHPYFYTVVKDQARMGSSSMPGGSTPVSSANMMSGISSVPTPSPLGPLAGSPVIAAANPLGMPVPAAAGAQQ

Compound: CN[C@H]1CCCN(c2ccc(Nc3cc(NC4CC4)n4ncc(C#N)c4n3)cc2NC(C)=O)C1 [2c, (S)-N-(5-((3-cyano-7-(cyclopropylamino)pyrazolo[1,5-a]pyrimidin-5-yl)amino)-2-(3-(methylamino)piperidin-1-yl)phenyl)acetamide]
- [drawing 10] / CSNK2A1 pIC50^a [1]: 8.3 pIC50
- [drawing 10] / CSNK2A2 pIC50^a [2]: 8.4 pIC50

Compound: CN[C@@H]1CCN(c2ccc(Nc3cc(NC4CC4)n4ncc(C#N)c4n3)cc2NC(C)=O)C1 [2d, (R)-N-(5-((3-cyano-7-(cyclopropylamino)pyrazolo[1,5-a]pyrimidin-5-yl)amino)-2-(3-(methylamino)pyrrolidin-1-yl)phenyl)acetamide]
- [drawing 10] / CSNK2A1 pIC50^a [1]: 8.6 pIC50
- [drawing 10] / CSNK2A2 pIC50^a [2]: 8.8 pIC50

Compound: CN[C@H]1CCN(c2ccc(Nc3cc(NC4CC4)n4ncc(C#N)c4n3)cc2NC(C)=O)C1 [2e, (S)-N-(5-((3-cyano-7-(cyclopropylamino)pyrazolo[1,5-a]pyrimidin-5-yl)amino)-2-(3-(methylamino)pyrrolidin-1-yl)phenyl)acetamide]
- [drawing 10] / CSNK2A1 pIC50^a [1]: 8.3 pIC50
- [drawing 10] / CSNK2A2 pIC50^a [2]: 8.4 pIC50

Compound: CC(=O)Nc1cc(Nc2cc(NC3CC3)n3ncc(C#N)c3n2)ccc1N(C)C[C@@H]1CCCN1 [2f, (S)-N-(5-((3-cyano-7-(cyclopropylamino)pyrazolo[1,5-a]pyrimidin-5-yl)amino)-2-(methyl(pyrrolidin-2-ylmethyl)amino)phenyl)acetamide]
- [drawing 10] / CSNK2A1 pIC50^a [1]: 8.4 pIC50
- [drawing 10] / CSNK2A2 pIC50^a [2]: 8.5 pIC50

Compound: CC(=O)Nc1cc(Nc2cc(NC3CC3)n3ncc(C#N)c3n2)ccc1N[C@@H]1CCCOC1 [2m, (R)-N-(5-((3-cyano-7-(cyclopropylamino)pyrazolo[1,5-a]pyrimidin-5-yl)amino)-2-((tetrahydro-2H-pyran-3-yl)amino)phenyl)acetamide]
- [drawing 10] / CSNK2A1 pIC50^a [1]: 8.0 pIC50
- [drawing 10] / CSNK2A2 pIC50^a [2]: 8.1 pIC50

Source: article doi:10.1101/2023.05.15.540828, “Optimization of 3-Cyano-7-cyclopropylamino-pyrazolo[1,5-a]pyrimidines Toward the Development of an In Vivo Chemical Probe for CSNK2A” (bioRxiv, 2023)
